Results published in US9981940B2, “Aryl sulfide derivatives and aryl sulfoxide derivatives as acaricides and insecticides” (BAYER CROPSCIENCE AKTIENGESELLSCHAFT, priority 2013, dated 2018).

Experiments:
[1] = log P by HPLC (OECD Guideline 117), method [b] neutral range; assay type: physicochemical; conditions: HPLC; for logP[b]: method [b] neutral range; for chromatographic logP: reversed-phase C18 HPLC column, neutral range, pH 7.8
Description: (§1) The log P values were determined analogously to OECD Guideline 117 (EC Directive 92/69/EEC) by HPLC (high-performance liquid chromatography) using reversed-phase columns (C 18), by the following methods:
[b] The LC-MS determination in the neutral range is effected at pH 7.8 with 0.001 molar aqueous ammonium hydrogencarbonate solution and acetonitrile as eluents; linear gradient from 10% acetonitrile to 95% acetonitrile.

[2] = system: Tetranychus urticae; test: Tetranychus urticae spray test, OP-resistant (TETRUR); assay type: in vivo; conditions: application rate of 500 g/ha, after 6 days; for pest or weed control at 500 g/ha: Tetranychus urticae, 144 h, read-out: efficacy
How it was run: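 Mortality as % efficacy (0% = no mites killed) read 6 days after spraying. Formulation: active ingredient in acetone/dimethylformamide plus emulsifier, diluted with emulsifier-containing water, applied to Phaseolus vulgaris leaf discs carrying every life stage of OP-resistant spider mites.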

[3] = system: Phaedon cochleariae; test: Phaedon cochleariae spray test (PHAECO); assay type: in vivo; conditions: application rate of 500 g/ha, after 7 days; for pest or weed control at 500 g/ha: Phaedon cochleariae, 168 h, read-out: efficacy
Description: Phaedon cochleariae—Spray Test (PHAECO)
• Solvent: 78.0 parts by weight of acetone • 1.5 parts by weight of dimethylformamide • Emulsifier: 0.5 part by weight of alkylaryl polyglycol ether
To produce an appropriate active ingredient formulation, 1 part by weight of active ingredient is mixed with the specified amounts of solvent and emulsifier, and the concentrate is diluted to the desired concentration with emulsifier-containing water.
Discs of Chinese cabbage leaves (Brassica pekinensis) are sprayed with an active ingredient formulation of the desired concentration and, after drying, populated with larvae of the mustard beetle (Phaedon cochleariae).
After 7 days, the efficacy in % is determined 100% means that all beetle larvae have been killed; 0% means that none of the beetle larvae have been killed.

[4] = log P by HPLC (OECD Guideline 117), method [a] acidic range; assay type: physicochemical; conditions: for logP[a]: HPLC, method [a] acidic range; for chromatographic logP: reversed-phase C18 HPLC column, acidic range
Description: as §1
[a] The LC-MS determination in the acidic range is effected at pH 2.7 with 0.1% aqueous formic acid and acetonitrile (contains 0.1% formic acid) as eluents; linear gradient from 10% acetonitrile to 95% acetonitrile.

[5] = system: Boophilus microplus; test: Boophilus microplus injection test (BOOPMI Inj); assay type: in vivo; conditions: application rate of 20 μg/animal, assessed after 7 days by laying of fertile eggs
Description: Use Examples Boophilus microplus Injection Test (BOOPMI Inj) • Solvent: dimethyl sulphoxide
To prepare an appropriate active ingredient formulation, 10 mg of active ingredient are mixed with 0.5 ml of solvent and the concentrate is diluted with solvent to the desired concentration.
1 μl of the active ingredient solution is injected into the abdomen of 5 engorged adult female cattle ticks (Boophilus microplus). The animals are transferred into dishes and kept in a climate-controlled room.
The efficacy is assessed after 7 days by laying of fertile eggs. Eggs which are not visibly fertile are stored in a climate-controlled cabinet until the larvae hatch after about 42 days.
An efficacy of 100% means that none of the ticks has laid any fertile eggs; 0% means that all the eggs are fertile.

[6] = pH 2.7, HPLC method [a], read-out: logP[a]
[7] = pH 2.7, HPLC, pH 2.7, read-out: log P[a]

Row | Structure (SMILES) | logP[b] [1] | logP[a] [4] | chromatographic logP [1] | chromatographic logP [4, 6] | chromatographic logP [4, 7] | efficacy [2] | efficacy [3] | efficacy [5] | pest or weed control at 500 g/ha [2] | pest or weed control at 500 g/ha [3]
1 | Cc1cc(F)c(-n2nc([S+]([O-])C(C)C)n(C)c2=O)cc1[S+]([O-])CC(F)(F)F (stereo not shown) [Example 245] | 1.90 | 1.94 |  |  |  | 100% |  | 100% |  | 
2 | COc1nn(-c2cc([S+]([O-])CC(F)(F)F)c(C)cc2C)c(=O)n1C1CC1 (stereo not shown) [Example 119] | 2.17 | 2.21 |  |  |  | 90% |  | 100% |  | 
3 | Cc1cc(F)c(-n2nc([S+](C)[O-])n(C3CC3)c2=O)cc1[S+]([O-])CC(F)(F)F (stereo not shown) [Example 231] | 1.58 | 1.61 |  |  |  | 100% |  | 100% |  | 
4 | Cc1ccc(-n2nc(OCC(F)(F)F)n(C3CC3)c2=O)cc1SCC(F)(F)F [Example 92] | 4.20 | 4.29 |  |  |  | 100% |  | 100% |  | 
5 | Cc1cc(F)c(-n2nc(C(F)(F)F)n(N)c2=O)cc1[S+]([O-])CC(F)(F)F (stereo not shown) [Example 215] | 2.17 | 2.19 |  |  |  | 100% |  | 100% |  | 
6 | Cc1cc(F)c(-n2nc(S(C)(=O)=O)n(C3CC3)c2=O)cc1[S+]([O-])CC(F)(F)F (stereo not shown) [Example 228] | 2.08 | 2.12 |  |  |  | 90% |  | 100% |  | 
7 | COc1ccc(-n2nc(OC)n(C3CC3)c2=O)cc1[S+]([O-])CC(F)(F)F (stereo not shown) [Example 109] | 2.30 | 2.34 |  |  |  |  | 100% |  |  | 
8 | Cc1cc(F)c(-n2nc(C(F)(F)F)n(C3CC3)c2=O)cc1[S+]([O-])CC(F)(F)F (stereo not shown) [Example 60] | 2.82 | 2.93 |  |  |  | 90% |  | 100% |  | 
9 | Cn1c(C(F)(F)F)nn(-c2cc(SCC(F)(F)F)c(C#N)cc2F)c1=O [Example 38] | 3.08 | 3.09 |  |  |  | 100% |  | 100% |  | 
10 | CCn1c([S+](C)[O-])nn(-c2cc([S+]([O-])CC(F)(F)F)c(C)cc2F)c1=O (stereo not shown) [Example 241] | 1.61 | 1.65 |  |  |  | 100% |  | 100% |  | 
11 | COc1nn(-c2ccc(C(F)(F)F)c(SCC(F)(F)F)c2)c(=O)n1C [Example 95, 5-Methoxy-4-methyl-2-{3-[(2,2,2-trifluoroethyl)sulphanyl]-4-(trifluoromethyl)phenyl}-2,4-dihydro-3H-1,2,4-triazol-3-one] |  |  | 3.64 | 3.74 | 3.74 |  |  |  |  | 83%
12 | Cc1cc(F)c(-n2nc(OC(C)(C)C)n(C)c2=O)cc1SCC(F)(F)F [Example 157] | 3.88 | 3.98 |  |  |  | 100% |  | 100% |  | 
13 | Cc1cc(F)c(-n2nc(OC(C)C)n(C3CC3)c2=O)cc1SCC(F)(F)F [Example 101] | 3.85 | 3.93 |  |  |  | 100% |  | 100% |  | 
14 | COCc1nn(-c2cc([S+]([O-])CC(F)(F)F)c(C)cc2F)c(=O)n1C1CC1 (stereo not shown) [Example 45] | 1.96 | 1.99 |  |  |  | 100% |  | 100% |  | 
15 | COc1nn(-c2cc([S+]([O-])CC(F)(F)F)c(C)cc2F)c(=O)n1C (stereo not shown) [Example 94] | 1.77 | 1.77 |  |  |  |  | 83% |  |  | 

Continued, in another order:

Row | logP[b] [1] | logP[a] [4] | chromatographic logP [1] | chromatographic logP [4, 6] | chromatographic logP [4, 7] | Structure (SMILES) | efficacy [2] | efficacy [3] | efficacy [5] | pest or weed control at 500 g/ha [2] | pest or weed control at 500 g/ha [3]
16 | 3.04 | 3.07 |  |  |  | Cc1cc(F)c(-n2nc(Cl)n(C)c2=O)cc1SCC(F)(F)F [Example 435] | 100% | 83% |  |  | 
17 | 3.25 | 3.31 |  |  |  | COC1=CC(=O)N(c2ccc(C(F)(F)F)c(SCC(F)(F)F)c2)C1 [Example 322] |  | 100% |  |  | 
18 |  |  | 1.82 | 1.87 | 1.87 | Cc1cc(F)c(-n2nnn(C)c2=O)cc1[S+]([O-])CC(F)(F)F (stereo not shown) [Example 301, 1-{2-Fluoro-4-methyl-5-[(2,2,2-trifluoroethyl)sulphinyl]phenyl}-4-methyl-1,4-dihydro-5H-tetrazol-5-one] |  |  | 100% | 100% | 
19 |  |  | 2.62 | 2.68 | 2.68 | Cc1cc(F)c(-n2nc(Br)n(C(C)C)c2=O)cc1[S+]([O-])CC(F)(F)F (stereo not shown) [Example 442, 5-Bromo-2-{2-fluoro-4-methyl-5-[(2,2,2-trifluoroethyl)sulphinyl]phenyl}-4-isopropyl-2,4-dihydro-3H-1,2,4-triazol-3-one] |  |  | 100% | 100% | 
20 | 2.94 | 2.88 |  |  |  | Cc1cc(C)c([S+]([O-])CC(F)(F)F)cc1-n1nc(OCC(F)(F)F)n(C2CC2)c1=O (racemic) [Example 381] | 90% |  | 100% |  | 
21 | 2.78 | 2.82 |  |  |  | CCn1c(OCC(F)(F)F)nn(-c2cc([S+]([O-])CC(F)(F)F)c(C)cc2F)c1=O (stereo not shown) [Example 406] | 90% |  | 100% |  | 
22 | 2.40 | 2.45 |  |  |  | CSc1nn(-c2cc([S+]([O-])CC(F)(F)F)c(C)cc2F)c(=O)n1C1CC1 (stereo not shown) [Example 257] | 100% |  | 100% |  | 
23 | 2.33 | 2.39 |  |  |  | CCn1c(SC)nn(-c2cc([S+]([O-])CC(F)(F)F)c(C)cc2F)c1=O (stereo not shown) [Example 270] | 100% |  | 100% |  | 
24 |  |  | 2.86 | 2.89 | 2.89 | Cc1cc(F)c(-n2nnn(C)c2=O)cc1SCC(F)(F)F [Example 302, 1-{2-Fluoro-4-methyl-5-[(2,2,2-trifluoroethyl)sulphanyl]phenyl}-4-methyl-1,4-dihydro-5H-tetrazol-5-one] |  |  | 100% | 100% | 
25 | 2.74 | 2.80 |  |  |  | COc1cc(F)c(-n2nc(OCC(F)(F)F)n(C3CC3)c2=O)cc1[S+]([O-])CC(F)(F)F (racemic) [Example 385] |  |  | 100% |  | 
26 | 2.81 | 2.84 |  |  |  | CCn1c([S+]([O-])CC)nn(-c2cc(SCC(F)(F)F)c(C)cc2F)c1=O (stereo not shown) [Example 253] | 100% |  | 100% |  | 
27 |  |  | 3.8 | 3.83 | 3.83 | Cc1cc(F)c(-n2nc(Br)n(C(C)C)c2=O)cc1SCC(F)(F)F [Example 439, 5-Bromo-2-{2-fluoro-4-methyl-5-[(2,2,2-trifluoroethyl)sulphanyl]phenyl}-4-isopropyl-2,4-dihydro-3H-1,2,4-triazol-3-one] |  |  | 100% | 100% | 
28 |  |  | 0.37 | 1.59 | 1.59 | Cc1cc(F)c(-n2nn[nH]c2=O)cc1[S+]([O-])CC(F)(F)F (stereo not shown) [Example 303, 1-{2-Fluoro-4-methyl-5-[(2,2,2-trifluoroethyl)sulphinyl]phenyl}-1,4-dihydro-5H-tetrazol-5-one] |  |  |  |  | 100%
29 | 2.97 | 3.06 |  |  |  | Cc1cc(Cl)c([S+]([O-])CC(F)(F)F)cc1-n1nc(OCC(F)(F)F)n(C2CC2)c1=O (racemic) [Example 384] | 100% |  | 100% |  | 
30 | 3.47 | 3.50 |  |  |  | COc1nn(-c2cc(SCC(F)(F)F)c(C)cc2F)c(=O)n1CC(F)(F)F [Example 393] | 100% |  | 100% |  | 
31 | 2.34 | 2.39 |  |  |  | Cc1cc(F)c(-n2nc(Br)n(C3CC3)c2=O)cc1[S+]([O-])CC(F)(F)F (racemic) [Example 295] | 100% |  | 100% |  | 
32 | 2.75 | 2.82 |  |  |  | Cc1cc(F)c(-n2nc(SCC3CC3)n(C)c2=O)cc1[S+]([O-])CC(F)(F)F (racemic) [Example 280] | 100% |  |  |  | 
